Experimental findings from patent US4200750A, “4-Substituted imidazo [1,2-a]quinoxalines” (Westwood Pharmaceuticals Inc., priority 1977, dated 1980) are described below.

Converted amounts (≈) assume the structure as drawn.

Test [1] has as its system immunosuppressant activity. Briefly: Immunosuppressant activity (general statement). Format: in vivo. Conditions: result in words.
The next test relates to T. rubrum. Briefly: Agar dilution antifungal assay, Trichophyton rubrum. It counts as cell-based, Trichophyton rubrum (ATCC No. 10218 and 14001). As to conditions: for MIC: Trichophyton rubrum, read-out: Parts Per Million Inhibitions, T. rubrum. On the procedure: (§1) Various compounds of this invention display antifungal and anti-yeast activity.
(§2) In Table IX below are listed the antifungal activity of a number of compounds encompassed in the present invention. These were determined by the agar dilution method as described in Chapters 2 and 3 of Methods in Microbiology, Vol. 7B, edited by J. R. Norris and D. W. Ribbons, Academic Press, New York, 1972.

In another test the test system is Rat Paw Edema. In words: Rat paw edema assay, local administration. Conditions: injected directly into paw, carrageenan. Format: in vivo. The protocol: The anti-inflammatory activity of representative compounds of this invention was determined by the rat paw edema assay both by local administration (Table XI below) and by oral dosing (Table XII below). For the oral dosing, the procedure of C. A. Winter, E. A. Risley and G. W. Nuss, Proc. Soc. Exp. Biol. Med. 111, 544 (1962) was employed with measurement taken four hours after the drug was administered. The local administration tests were carried out similarly except the irritant (carrageenan) and the test compound were injected simultaneously at time zero.
Tables XI and XII report the anti-inflammatory activity of the compounds tested as % difference in the edema or swelling as compared with the control. These Tables also give the response in many instances of more than one dose level of the same drug.

The next test deals with T. ajelloi. In words: Agar dilution antifungal assay, Trichophyton ajelloi. Format: cell-based. On the procedure:
as §1, §2

The subject of the next test is T. mentagrophytes. Briefly: Agar dilution antifungal assay, Trichophyton mentagrophytes. It counts as cell-based, Trichophyton mentagrophytes (ATCC No. 8757 and 9129). On the procedure:
as §1, §2
For orientation: In agar dilution the substance is mixed into plates at graded concentrations.

For `c1ccc2c(c1)ncc1nccn12` [Compound 109, imidazo[1,2-a]quinoxaline], in test [1], the immunosuppressant activity result is listed as “lacks immunosuppressant activity”. Consider `CCCCc1nc2ccccc2n2ccnc12` [Compound 113], for which, in the test with T. rubrum, the MIC worked out at 16 µg/mL (≈ 71 µM). For `CCCCCc1nc2ccccc2n2ccnc12` [Compound 114], in the test on Rat Paw Edema, the “% Difference from Control (edema), local administration, 10 μg” value is -30.0%. On to `CCCCCCCCc1nc2ccccc2n2ccnc12` [Compound 117], for which the MIC with T. ajelloi (Arthroderma uncinatum, read-out: Parts Per Million Inhibitions, T. ajelloi) was 16 µg/mL (≈ 56.9 µM); in the test on T. rubrum, 8 µg/mL (≈ 28.4 µM); in the test on T. mentagrophytes (Trichophyton mentagrophytes, read-out: Parts Per Million Inhibitions, T. mentagrophytes), 16 µg/mL (≈ 56.9 µM). Regarding `c1ccc(-c2nc3ccccc3n3ccnc23)cc1` [Compound 131, 4-phenylimidazo[1,2-a]quinoxaline], the immunosuppressant activity entry in test [1] is given as “only minor activity”. Turning to `Clc1cccc(Nc2nc3ccccc3n3ccnc23)c1` [Compound 179], the “Parts Per Million Inhibitions, T. ajelloi” value in the test with T. ajelloi is on record as 100 Parts Per Million. The “Parts Per Million Inhibitions, T. rubrum” value in the test with T. rubrum was 100 Parts Per Million. In addition, the “Parts Per Million Inhibitions, T. mentagrophytes” value in the test on T. mentagrophytes amounted to 100 Parts Per Million.
